Reference: ChEMBL document CHEMBL5465560, “Selectivity Literature for EUbOPEN Chemogenomic Library” (2024)
Each block holds one compound with its values, some of them ahead of it.

Legend:
[1] = target: Hepatocyte growth factor receptor (Homo sapiens, UniProt P08581); test: Selectivity interaction (Kinase panel (literature)) EUB0001199aCl MET; details: at 1 µM
[2] = target: Bone morphogenetic protein receptor type-1B (Homo sapiens, UniProt O00238); test: Selectivity interaction (KinomeScan (DiscoverX)) EUB0000595a BMPR1B; details: at 10 µM
Bone morphogenetic protein receptor type-1B, sequence (O00238 whole entry): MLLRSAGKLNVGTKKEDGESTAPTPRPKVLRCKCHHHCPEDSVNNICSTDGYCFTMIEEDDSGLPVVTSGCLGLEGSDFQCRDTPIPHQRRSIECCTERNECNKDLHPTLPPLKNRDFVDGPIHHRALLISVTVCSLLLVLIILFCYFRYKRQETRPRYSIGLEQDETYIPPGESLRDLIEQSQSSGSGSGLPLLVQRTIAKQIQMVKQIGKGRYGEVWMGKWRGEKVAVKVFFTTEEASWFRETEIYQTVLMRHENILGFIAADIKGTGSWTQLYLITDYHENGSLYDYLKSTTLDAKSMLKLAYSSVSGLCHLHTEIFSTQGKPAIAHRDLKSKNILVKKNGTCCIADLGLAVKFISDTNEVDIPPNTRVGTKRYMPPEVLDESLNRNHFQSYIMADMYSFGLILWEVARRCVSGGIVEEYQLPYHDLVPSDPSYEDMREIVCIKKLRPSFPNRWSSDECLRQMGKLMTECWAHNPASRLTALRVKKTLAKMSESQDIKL

[3] = target: T1, Hormonally up-regulated neu tumor-associated kinase (Homo sapiens) (UniProt P57058); test: Selectivity interaction (KinomeScan (DiscoverX)) EUB0000229b HUNK; details: at 10 µM
T1 sequence (whole entry): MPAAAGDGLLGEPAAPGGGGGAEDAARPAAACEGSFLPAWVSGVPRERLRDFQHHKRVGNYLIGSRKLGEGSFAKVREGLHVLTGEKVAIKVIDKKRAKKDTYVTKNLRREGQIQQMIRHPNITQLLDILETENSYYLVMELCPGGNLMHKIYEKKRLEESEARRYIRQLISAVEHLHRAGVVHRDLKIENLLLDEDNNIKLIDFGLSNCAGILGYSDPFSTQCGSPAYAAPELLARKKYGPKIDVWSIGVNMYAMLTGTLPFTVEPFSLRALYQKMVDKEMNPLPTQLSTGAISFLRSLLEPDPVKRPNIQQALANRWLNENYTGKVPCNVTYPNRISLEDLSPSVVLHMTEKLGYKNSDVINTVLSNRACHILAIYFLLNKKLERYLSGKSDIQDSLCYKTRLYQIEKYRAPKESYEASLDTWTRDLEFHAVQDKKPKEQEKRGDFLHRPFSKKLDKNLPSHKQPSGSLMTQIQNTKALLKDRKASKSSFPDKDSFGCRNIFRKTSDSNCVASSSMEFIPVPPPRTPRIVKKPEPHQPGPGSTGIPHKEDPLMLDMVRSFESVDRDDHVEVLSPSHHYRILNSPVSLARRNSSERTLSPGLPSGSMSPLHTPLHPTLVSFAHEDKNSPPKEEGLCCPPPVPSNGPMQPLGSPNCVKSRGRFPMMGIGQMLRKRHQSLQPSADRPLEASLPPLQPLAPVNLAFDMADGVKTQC

[4] = target: T2, Ephrin type-B receptor 2 (Homo sapiens) (UniProt P29323); test: Selectivity interaction (KinomeScan (DiscoverX)) EUB0001079a EPHB2; details: at 1 µM
T2 sequence (whole entry): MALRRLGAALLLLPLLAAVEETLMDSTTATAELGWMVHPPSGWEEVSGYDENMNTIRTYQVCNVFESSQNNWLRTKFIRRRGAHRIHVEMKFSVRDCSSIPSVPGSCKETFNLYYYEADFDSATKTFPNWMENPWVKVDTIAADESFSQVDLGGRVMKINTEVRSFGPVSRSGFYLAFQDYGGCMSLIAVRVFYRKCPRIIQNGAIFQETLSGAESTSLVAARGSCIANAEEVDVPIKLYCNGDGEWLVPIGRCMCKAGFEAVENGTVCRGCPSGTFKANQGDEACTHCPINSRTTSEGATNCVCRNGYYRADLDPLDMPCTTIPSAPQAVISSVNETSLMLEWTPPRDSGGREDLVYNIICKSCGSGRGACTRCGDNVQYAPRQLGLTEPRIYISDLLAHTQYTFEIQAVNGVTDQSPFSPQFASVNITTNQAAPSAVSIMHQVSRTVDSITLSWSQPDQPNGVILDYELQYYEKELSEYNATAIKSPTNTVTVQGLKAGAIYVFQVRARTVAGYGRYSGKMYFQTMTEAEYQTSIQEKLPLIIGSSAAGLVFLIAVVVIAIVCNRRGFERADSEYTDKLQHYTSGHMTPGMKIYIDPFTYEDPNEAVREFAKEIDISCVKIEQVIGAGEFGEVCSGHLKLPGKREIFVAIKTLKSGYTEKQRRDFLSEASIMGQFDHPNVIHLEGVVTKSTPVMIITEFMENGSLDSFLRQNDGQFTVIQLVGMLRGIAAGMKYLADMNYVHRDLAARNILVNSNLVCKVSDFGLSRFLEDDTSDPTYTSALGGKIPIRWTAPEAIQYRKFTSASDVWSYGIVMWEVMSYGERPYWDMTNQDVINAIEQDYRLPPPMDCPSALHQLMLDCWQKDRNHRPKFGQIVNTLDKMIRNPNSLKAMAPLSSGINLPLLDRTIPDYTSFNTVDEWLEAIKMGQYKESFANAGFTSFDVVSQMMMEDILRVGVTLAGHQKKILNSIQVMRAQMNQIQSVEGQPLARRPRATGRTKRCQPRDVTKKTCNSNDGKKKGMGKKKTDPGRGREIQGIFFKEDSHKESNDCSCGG

[5] = target: T3, Inhibitor of nuclear factor kappa-B kinase subunit epsilon (Homo sapiens) (UniProt Q14164); test: Selectivity interaction (KinomeScan (DiscoverX)) EUB0000045b IKBKE
T3 sequence (whole entry): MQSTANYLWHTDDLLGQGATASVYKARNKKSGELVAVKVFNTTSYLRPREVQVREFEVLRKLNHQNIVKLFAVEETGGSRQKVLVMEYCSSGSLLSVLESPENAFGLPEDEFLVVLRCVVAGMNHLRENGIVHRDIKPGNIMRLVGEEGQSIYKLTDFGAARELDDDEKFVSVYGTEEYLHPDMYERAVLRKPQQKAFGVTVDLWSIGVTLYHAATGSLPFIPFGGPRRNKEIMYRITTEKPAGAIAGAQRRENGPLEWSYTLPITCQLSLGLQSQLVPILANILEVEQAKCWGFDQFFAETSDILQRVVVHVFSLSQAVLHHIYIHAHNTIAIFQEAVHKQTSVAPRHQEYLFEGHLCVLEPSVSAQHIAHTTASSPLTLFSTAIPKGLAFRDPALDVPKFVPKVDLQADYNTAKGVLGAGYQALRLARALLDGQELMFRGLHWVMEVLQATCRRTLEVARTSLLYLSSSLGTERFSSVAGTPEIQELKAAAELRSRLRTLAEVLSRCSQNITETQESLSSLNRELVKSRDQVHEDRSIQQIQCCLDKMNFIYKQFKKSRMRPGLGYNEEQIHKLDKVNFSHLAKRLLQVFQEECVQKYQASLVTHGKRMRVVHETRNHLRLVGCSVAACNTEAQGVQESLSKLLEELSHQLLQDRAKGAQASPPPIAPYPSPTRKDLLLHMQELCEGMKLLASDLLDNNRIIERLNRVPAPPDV

[6] = target: Phosphatidylinositol 4-kinase beta (Homo sapiens, UniProt Q9UBF8); test: Selectivity interaction (KinomeScan (DiscoverX)) EUB0000607a PI4KB; details: at 10 µM
Phosphatidylinositol 4-kinase beta, sequence (Q9UBF8 2-816 limits assumed): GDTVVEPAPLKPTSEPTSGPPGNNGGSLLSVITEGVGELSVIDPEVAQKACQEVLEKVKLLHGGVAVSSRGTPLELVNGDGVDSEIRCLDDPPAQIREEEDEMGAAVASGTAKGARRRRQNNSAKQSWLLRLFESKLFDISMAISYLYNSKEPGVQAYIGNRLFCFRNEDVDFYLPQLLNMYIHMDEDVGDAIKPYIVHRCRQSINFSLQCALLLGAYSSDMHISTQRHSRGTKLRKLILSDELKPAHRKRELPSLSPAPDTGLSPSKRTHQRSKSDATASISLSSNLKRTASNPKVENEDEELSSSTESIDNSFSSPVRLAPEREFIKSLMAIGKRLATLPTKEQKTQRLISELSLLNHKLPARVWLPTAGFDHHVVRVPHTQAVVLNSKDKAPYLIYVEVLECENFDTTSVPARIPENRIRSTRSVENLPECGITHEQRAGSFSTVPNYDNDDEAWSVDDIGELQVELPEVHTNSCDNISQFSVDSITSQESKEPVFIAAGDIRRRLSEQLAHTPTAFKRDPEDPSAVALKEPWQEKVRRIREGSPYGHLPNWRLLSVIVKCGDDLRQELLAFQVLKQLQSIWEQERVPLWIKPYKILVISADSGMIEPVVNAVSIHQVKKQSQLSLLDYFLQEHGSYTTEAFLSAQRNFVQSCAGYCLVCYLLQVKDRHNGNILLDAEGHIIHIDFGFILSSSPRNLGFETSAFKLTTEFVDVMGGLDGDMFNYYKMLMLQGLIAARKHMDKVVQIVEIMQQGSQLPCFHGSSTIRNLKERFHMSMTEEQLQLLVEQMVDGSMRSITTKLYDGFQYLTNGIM

Hepatocyte growth factor receptor, sequence (P08581 whole entry): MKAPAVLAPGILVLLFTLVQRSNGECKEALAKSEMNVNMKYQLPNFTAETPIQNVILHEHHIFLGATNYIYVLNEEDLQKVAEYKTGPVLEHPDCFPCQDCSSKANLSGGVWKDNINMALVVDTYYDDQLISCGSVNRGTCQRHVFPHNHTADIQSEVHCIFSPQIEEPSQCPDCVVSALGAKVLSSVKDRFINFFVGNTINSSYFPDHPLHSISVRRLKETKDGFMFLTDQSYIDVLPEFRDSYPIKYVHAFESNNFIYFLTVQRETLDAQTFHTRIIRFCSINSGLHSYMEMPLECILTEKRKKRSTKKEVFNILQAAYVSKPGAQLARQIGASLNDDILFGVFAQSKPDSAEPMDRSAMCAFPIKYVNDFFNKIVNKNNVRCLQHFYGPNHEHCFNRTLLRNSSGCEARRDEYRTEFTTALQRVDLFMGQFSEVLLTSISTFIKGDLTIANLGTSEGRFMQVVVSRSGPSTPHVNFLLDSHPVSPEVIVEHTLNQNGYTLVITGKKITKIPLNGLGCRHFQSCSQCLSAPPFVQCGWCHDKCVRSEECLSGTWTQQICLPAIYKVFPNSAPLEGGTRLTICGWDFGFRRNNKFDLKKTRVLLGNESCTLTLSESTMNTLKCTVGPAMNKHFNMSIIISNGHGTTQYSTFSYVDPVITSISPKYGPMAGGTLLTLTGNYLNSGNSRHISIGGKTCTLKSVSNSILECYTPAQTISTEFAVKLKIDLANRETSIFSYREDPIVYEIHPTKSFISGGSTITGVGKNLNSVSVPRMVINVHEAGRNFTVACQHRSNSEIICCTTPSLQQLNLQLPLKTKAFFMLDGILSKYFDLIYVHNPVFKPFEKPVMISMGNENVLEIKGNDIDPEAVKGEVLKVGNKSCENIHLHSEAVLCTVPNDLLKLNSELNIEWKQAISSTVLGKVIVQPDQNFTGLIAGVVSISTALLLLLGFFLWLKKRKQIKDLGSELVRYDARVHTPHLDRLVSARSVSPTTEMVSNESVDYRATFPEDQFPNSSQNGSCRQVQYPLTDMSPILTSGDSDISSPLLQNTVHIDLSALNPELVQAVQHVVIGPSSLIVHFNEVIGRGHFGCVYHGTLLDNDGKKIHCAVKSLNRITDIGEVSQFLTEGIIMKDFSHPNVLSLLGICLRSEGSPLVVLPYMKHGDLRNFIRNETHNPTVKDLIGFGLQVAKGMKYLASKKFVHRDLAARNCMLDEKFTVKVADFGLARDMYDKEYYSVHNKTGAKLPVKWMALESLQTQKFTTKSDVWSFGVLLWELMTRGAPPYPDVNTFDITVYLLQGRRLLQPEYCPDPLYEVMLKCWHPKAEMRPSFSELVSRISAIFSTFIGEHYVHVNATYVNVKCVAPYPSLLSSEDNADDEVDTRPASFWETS

% of inhibition [1]: 10%
Compound: CN1Cc2nccc(-c3cn(C)nc3-c3ccc(F)cc3)c2C1=O

Compound: COCC(=O)NC/C=C/c1ccc2ncnc(Nc3ccc(Oc4ccc(C)nc4)c(C)c3)c2c1 [CP-724714]
% of control [2]: 17%

Compound: COc1cc(N(C)c2ccnc3ccc(C(F)(F)F)cc23)cc(OC)c1OC
% binding [3]: 93%

Compound: Nc1cnc(N2CCc3cc(S(=O)(=O)Nc4c(F)cc(Cl)cc4F)cc(N4CCCC4=O)c32)nc1 [TP-020n]
% of control [4]: 87%

Compound: C=CC(=O)Nc1cc(-n2c(=O)ccc3cnc4ccc(-c5ccc(NS(C)(=O)=O)cc5)cc4c32)ccc1C
% of control ([5]; at 1 µM): 100%
% of control ([5]; at 10 µM): 100%

Compound: CNC(=O)Nc1ccc(-c2nc(N3CC4CCC(C3)O4)c3cnn(C4CCC5(CC4)OCCO5)c3n2)cc1
% of control [6]: 100%
